Source: PMC3306180 (Journal of Medicinal Chemistry, 2012)
Like-named read-outs stand apart in the source and are kept apart here.

Tests used:
T. gondii = T. gondii cell proliferation; format: cell-based, Toxoplasma gondii
HL-60 (neutrophil) cells = test: Human cell growth inhibition assay, HL-60; conditions: concentrations up to 10 μM
[1] = test system: CRL-8155 (lymphocytic) cells; test: Human cell growth inhibition assay, CRL-8155; conditions: concentrations up to 10 μM
human kinases = format: biochemical
[2] = generally observed, human kinase panel of Table 4

| SMILES | block of T. gondii cell invasion/proliferation (T. gondii) | inhibition of cell growth, HL-60 (HL-60 (neutrophil) cells) | inhibition of cell growth, CRL-8155 [1] | differences between IC50 values for TgCDPK1 over human kinases (human kinases; [2]) [fold] | differences between IC50 values for TgCDPK1 over human kinases (human kinases) [fold] |
| --- | --- | --- | --- | --- | --- |
| CC(C)(C)n1ncc2c(N)ncnc21.Cl [Compound 1b] | do not block T. gondii cell invasion/proliferation |  |  |  |  |
| Cl.Nc1ncnc2c1cnn2CC1CCNCC1 [Compound 1n] | do not block T. gondii cell invasion/proliferation |  |  |  |  |
| COc1ccc2cc(-c3nn(C(C)C)c4ncnc(N)c34)ccc2c1.Cl [Compound 14a] |  | no inhibition of cell growth | no inhibition of cell growth |  |  |
| COc1ccc2cc(-c3nn(CC4CCNCC4)c4ncnc(N)c34)ccc2c1.Cl [Compound 14n] |  | no inhibition of cell growth | no inhibition of cell growth | > 1000 |  |
| CCOc1ccc2cc(-c3nn(C4CCN(C)CC4)c4ncnc(N)c34)ccc2c1.Cl [Compound 15h] |  | no inhibition of cell growth | no inhibition of cell growth | > 1000 |  |
| CCOc1ccc2cc(-c3nn(CC4CCNCC4)c4ncnc(N)c34)ccc2c1.Cl [Compound 15n] |  | no inhibition of cell growth | no inhibition of cell growth |  | > 1000 |
| CCOc1ccc2cc(-c3nn(CC4CCN(C)CC4)c4ncnc(N)c34)ccc2c1.Cl [Compound 15o] |  |  |  | > 1000 |  |
| CCOc1ccc2cc(-c3nn(CC4CCNCC4)c4ncnc(N)c34)ccc2n1.Cl [Compound 16n] |  | no inhibition of cell growth | no inhibition of cell growth | > 1000 |  |
